Test results published in article PMC4264192, “Synthesis and Biological Evaluation of 2-Thioxopyrimidin-4(1H)-one Derivatives as Potential Non-Nucleoside HIV-1 Reverse Transcriptase Inhibitors” (International Journal of Molecular Sciences, 2014).
Where two headings read alike, the source gives them in different places.

Columns and labels:
[1] = tested on: HIV-1; experiment: Inhibition of HIV-1 replication in MT-4 cells (HIV-1 antigen ELISA or MTT); assay type: cell-based, human immunodeficiency virus type 1; details: for IC50: Human immunodeficiency virus 1, MT4, 144 h, read-out: IC50, 50% inhibitory concentration (anti-HIV-1 activity); for Selectivity index (SI), CC50/IC50 / activity against HIV-1 replication (in words): MT-4 cells; for Selectivity index (SI), CC50/IC50: ratio CC50/IC50; for activity against HIV-1 replication (in words): less than 30% reduction of HIV expression considered without biological activity; for EC50: Human immunodeficiency virus 1, MT4, read-out: EC50 against wild-type HIV-1
Description: Compounds mediating less than 30% reduction of HIV expression were considered without biological activity.

[2] = Cytotoxic effect in uninfected MT-4 cultures; assay type: cell-based; details: human, uninfected MT-4 cells; read-out: CC50, 50% cytotoxic concentration
[3] = HIV-1 in MT-4 cells, six days, 0.005 MOI

In the case of Cc1cn([C@H]2C[C@H](N=[N+]=[N-])[C@@H](CO)O2)c(=O)[nH]c1=O [AZT, azidothymidine, reference compound], the IC50 [1, 3] is reported as 0.04 µM, the “Selectivity index (SI), CC50/IC50” value [1] is reported as 1,300 and the CC50 at 6 days [2] is reported as 52 µM.

In the case of C=CCc1c(Cc2ccccc2)nc(SC)[nH]c1=O [Compound 2a, 5-Allyl 6-(benzyl)-2-(methylthio)pyrimidin-4(3H)-one], the IC50 [1, 3] is reported as 26.8 µM, the “Selectivity index (SI), CC50/IC50” value [1] is reported as greater than 3 and the CC50 at 6 days [2] is reported as greater than 100 µM. For the same compound, the melting point was 214 to 216 °C.

C=CCc1c(Cc2ccccc2)nc(SCCO)[nH]c1=O [Compound 2b, 2-(2-Hydroxyethylthio)-5-allyl-6-benzylpyrimidin-4(3H)-one] showed a melting point of 164 to 166 °C.

With C=CCc1c(Cc2ccccc2)nc(SCCCBr)[nH]c1=O [Compound 2c, 2-(3-Bromopropylthio)-5-allyl-6-benzylpyrimidin-4(3H)-one] the “activity against HIV-1 replication (in words)” value (from here on “activity”) [1] was “inactive” and the melting point was 138 to 140 °C.

For C=CCc1c(Cc2ccccc2)nc(SCCCCCC)[nH]c1=O [Compound 2d, 5-Allyl-6-benzyl-2-(hexylthio)pyrimidin-4(3H)-one], the IC50 [1] was 7 µM, the CC50 at 6 days [2] was 35 µM and the melting point was 153 to 155 °C.

C=CCSc1nc(Cc2ccccc2)c(CC=C)c(=O)[nH]1 [Compound 2e, 5-Allyl 6-benzyl-2-(allylthio)pyrimidin-4(3H)-one] showed an IC50 [1] of 2.5 µM, an EC50 [1] of 2.5 µM and a CC50 at 6 days [2] of 25 µM. For the same compound, the melting point was 114 to 116 °C.

C=CCc1c(Cc2ccccc2)nc(SCCOCOC)[nH]c1=O [Compound 2f, 5-Allyl-6-benzyl-2-(2-(methoxymethoxy)ethylthio)pyrimidin-4(3H)-one] showed a melting point of 188 to 190 °C.

C=CCc1c(Cc2ccccc2)nc(SCCOCOCCBr)[nH]c1=O [Compound 2g, 5-Allyl-6-benzyl-2-(2-((2-bromoethoxy)methoxy)ethylthio)pyrimidin-4(3H)-one] showed a melting point of 192 to 194 °C.

For C=CCc1c(Cc2ccccc2)nc(SCC(C)C)[nH]c1=O [Compound 2h, 5-Allyl-6-benzyl-2-(isobutylthio)pyrimidin-4(3H)-one], the IC50 [1, 3] was 1 µM, the “Selectivity index (SI), CC50/IC50” value [1] was greater than 100 and the CC50 at 6 days [2] was greater than 100 µM. It also gave a melting point of 134 to 136 °C.

Work on C=CCc1c(Cc2ccccc2)nc(SCC(CC)CC)[nH]c1=O [Compound 2i, 5-Allyl-6-benzyl-2-(2-ethylbutylthio)pyrimidin-4(3H)-one] yielded a melting point of 141 to 143 °C.

C=CCc1c(Cc2ccccc2)nc(SC2CCCC2)[nH]c1=O [Compound 2j, 5-Allyl 6-benzyl-2-(cyclopentylthio)pyrimidin-4(3H)-one] showed an IC50 [1, 3] of 2.6 µM, an EC50 [1] of 2.6 µM and a CC50 at 6 days [2] greater than 100 µM.

With C=CCc1c(Cc2ccccc2)nc(SC2CCOC2=O)[nH]c1=O (stereo not shown) [Compound 2k, 5-Allyl-6-benzyl-2-(tetrahydro-2-oxofuran-3-ylthio)pyrimidin-4(3H)-one] the “activity” value [1] was “inactive” and the melting point was 153 to 155 °C.

In the case of C=CCc1c(Cc2ccccc2)nc(SCC(=O)OC)[nH]c1=O [Compound 3a, 5-Allyl-6-benzyl-2-(methylacetatethio)pyrimidin-4(3H)-one], the IC50 [1, 3] is reported as 35 µM, the “Selectivity index (SI), CC50/IC50” value [1] is reported as greater than 2 and the CC50 at 6 days [2] is reported as greater than 100 µM. The melting point was 117 to 119 °C.

In the case of C=CCc1c(Cc2ccccc2)nc(SCC(=O)OCC)[nH]c1=O [Compound 3b, 5-Allyl-6-benzyl-2-(ethylacetatethio)pyrimidin-4(3H)-one], the “activity” value [1] is reported as “inactive” and the melting point is reported as 118 to 120 °C.

With C=CCc1c(Cc2ccccc2)nc(SCC(=O)NC)[nH]c1=O [Compound 4, 2-(5-Allyl-4-benzyl-1,6-dihydro-6-oxopyrimidin-2-ylthio)-N-methylacetamide] the “activity” value [1] was “inactive”.

Compound C=CCc1c(Cc2ccccc2)nc(SC2CCCCC2)[nH]c1=O [Compound 6, 5-Allyl 6-benzyl-2-(cyclohexylthio)pyrimidin-4(3H)-one] has a melting point of 138 to 140 °C.

O=c1[nH]c([S+]([O-])C2CCCCC2)nc(Cc2ccccc2)c1CC1CO1 (stereo not shown) [Compound 7, 6-Benzyl-2-(cyclohexylsulfinyl)-5-((oxiran-2-yl)methyl)pyrimidin-4(3H)-one] gave a melting point of 190 to 192 °C.

In the case of C=CCc1c(Cc2ccccc2)nc(SC2CCCCC2)[nH]c1=S [Compound 8, 5-Allyl-6-benzyl-2-(cyclohexylthio)pyrimidine-4(3H)-thione], the IC50 [1, 3] is reported as 3.9 µM, the “Selectivity index (SI), CC50/IC50” value [1] is reported as greater than 25 and the CC50 at 6 days [2] is reported as greater than 100 µM. For the same compound, the melting point was 143 to 145 °C.

With C=CCc1c(Cc2ccccc2)nc(SCC(OCC)OCC)[nH]c1=O [Compound 9, 5-Allyl 6-benzyl-2-(2,2-diethoxyethylthio)pyrimidin-4(3H)-one] the “activity” value [1] was “inactive” and the melting point was 156 to 158 °C.

C=CCc1c(Cc2ccccc2)n2c(nc1=O)SCC2OCC (stereo not shown) [Compound 10, 6-Allyl-5-benzyl-3-ethoxy-2,3-dihydrothiazolo[3,2-a]pyrimidin-7-one] gave a melting point of 162 to 164 °C.

For C=CCc1c(Cc2ccccc2)nc(SCSC)[nH]c1=O [Compound 11a, 2-((Methylthio)methylthio)-5-allyl-6-benzylpyrimidin-4(3H)-one], the IC50 [1, 3] was 3.16 µM, the “Selectivity index (SI), CC50/IC50” value [1] was greater than 31 and the CC50 at 6 days [2] was greater than 100 µM. It also gave a melting point of 218 to 220 °C.

With C=CCc1c(Cc2ccccc2)nc(SCOCC)[nH]c1=O [Compound 11b, 5-Allyl-6-benzyl-2-(ethoxymethylthio)pyrimidin-4(3H)-one] the melting point was 142 to 144 °C.

With C=CCc1c(Cc2ccccc2)nc(SCCCO)[nH]c1=O [Compound 11c, 2-(3-Hydroxypropylthio)-5-allyl-6-benzylpyrimidin-4(3H)-one] the IC50 [1, 3] was 0.32 µM, the EC50 [1] was 0.32 µM and the “Selectivity index (SI), CC50/IC50” value [1] was greater than 312. It also gave a CC50 at 6 days [2] greater than 100 µM and a melting point of 123 to 125 °C.

In the case of CCOCn1c(Cc2ccccc2)c(C(C)C)c(=O)[nH]c1=O [MKC-442, 6-benzyl-1-(ethoxymethyl)-5-isopropylpyrimidine-2,4-dione, reference compound], the IC50 [1, 3] is reported as 0.005 µM, the “Selectivity index (SI), CC50/IC50” value [1] is reported as 28,000 and the CC50 at 6 days [2] is reported as 141 µM.
